# Reference: article PMC10746543, “Design principles for cyclin K molecular glue degraders” (Nature Chemical Biology, 2023)
# Several values for one entry are separate records, joined by “and”; a condition that tells them apart may be missing. Identical values can stand only once. Like-named read-outs stand apart in the source and are kept apart here.
# What was measured:
# CDK12–cyclin K and DDB1 = target: T1, CDK12–cyclin K and DDB1 (Homo sapiens, UniProt Q16531+Q9NYV4, K965R); assay: TR-FRET ternary complex formation assay (compound titration); assay type: binding
# T1 construct: His6–CDK12 (a.a. 713–1,052); full-length or beta-propeller B domain deletion (ΔBPB: a.a. 396–705 deleted) constructs of His6–DDB1ΔBPB, StrepII–Avi–DDB1, or His6–Spy–DDB1; made in house; host or cells: Trichoplusia ni High Five insect cells (baculovirus)
# T1 sequence (Q9NYV4 713-1052 K965R): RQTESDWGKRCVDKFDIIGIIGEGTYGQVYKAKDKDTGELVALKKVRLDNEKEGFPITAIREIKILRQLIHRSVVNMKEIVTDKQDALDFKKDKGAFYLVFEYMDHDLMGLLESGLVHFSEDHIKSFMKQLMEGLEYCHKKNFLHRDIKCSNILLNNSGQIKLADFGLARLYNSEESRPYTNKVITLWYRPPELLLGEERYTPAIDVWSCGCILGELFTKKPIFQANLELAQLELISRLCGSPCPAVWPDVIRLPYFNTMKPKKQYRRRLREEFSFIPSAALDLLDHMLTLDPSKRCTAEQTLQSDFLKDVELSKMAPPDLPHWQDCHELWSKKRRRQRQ
# T1 sequence (O75909 1-267 partner): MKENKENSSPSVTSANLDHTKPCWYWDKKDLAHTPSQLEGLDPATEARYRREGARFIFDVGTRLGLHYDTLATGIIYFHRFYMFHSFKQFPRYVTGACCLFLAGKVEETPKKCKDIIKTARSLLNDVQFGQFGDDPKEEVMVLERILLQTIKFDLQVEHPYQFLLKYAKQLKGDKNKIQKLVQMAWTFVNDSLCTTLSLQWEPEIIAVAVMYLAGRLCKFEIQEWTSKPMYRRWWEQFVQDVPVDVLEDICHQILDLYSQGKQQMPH
# T1 sequence (Q16531 whole entry): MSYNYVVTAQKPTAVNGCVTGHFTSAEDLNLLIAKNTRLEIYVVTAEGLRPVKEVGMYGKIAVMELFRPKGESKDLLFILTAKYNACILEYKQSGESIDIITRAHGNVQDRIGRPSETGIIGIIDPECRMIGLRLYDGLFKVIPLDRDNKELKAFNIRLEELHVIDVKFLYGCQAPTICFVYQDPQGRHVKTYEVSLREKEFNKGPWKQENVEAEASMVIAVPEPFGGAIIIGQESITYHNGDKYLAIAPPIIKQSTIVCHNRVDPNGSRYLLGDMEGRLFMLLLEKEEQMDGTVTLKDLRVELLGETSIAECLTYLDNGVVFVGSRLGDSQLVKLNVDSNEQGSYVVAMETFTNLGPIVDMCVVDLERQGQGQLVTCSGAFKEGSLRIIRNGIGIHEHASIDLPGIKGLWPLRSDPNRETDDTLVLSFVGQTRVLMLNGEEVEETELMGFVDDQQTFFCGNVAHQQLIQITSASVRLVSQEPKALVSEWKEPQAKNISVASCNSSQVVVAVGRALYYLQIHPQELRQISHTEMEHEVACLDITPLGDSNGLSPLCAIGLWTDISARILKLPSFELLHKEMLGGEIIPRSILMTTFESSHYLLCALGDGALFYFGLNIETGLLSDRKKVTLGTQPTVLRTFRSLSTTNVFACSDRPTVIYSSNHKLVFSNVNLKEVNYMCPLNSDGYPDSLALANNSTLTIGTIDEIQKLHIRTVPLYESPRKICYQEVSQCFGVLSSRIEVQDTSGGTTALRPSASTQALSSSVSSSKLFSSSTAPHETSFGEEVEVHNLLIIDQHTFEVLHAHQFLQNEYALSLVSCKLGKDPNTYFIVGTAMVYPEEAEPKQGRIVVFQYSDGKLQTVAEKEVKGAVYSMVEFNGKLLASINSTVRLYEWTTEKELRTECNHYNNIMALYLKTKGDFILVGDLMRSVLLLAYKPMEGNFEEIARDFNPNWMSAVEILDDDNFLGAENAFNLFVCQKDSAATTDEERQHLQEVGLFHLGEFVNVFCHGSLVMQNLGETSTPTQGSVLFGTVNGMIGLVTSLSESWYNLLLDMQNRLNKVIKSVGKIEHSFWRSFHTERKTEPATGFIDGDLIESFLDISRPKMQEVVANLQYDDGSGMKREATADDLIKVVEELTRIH
# Summary of the method: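 Background fluorescence is reduced by reading 70 μs after excitation, and complex formation is followed as the 520:490 nm fluorescence ratio.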
# CDK12–cyclin K = CDK12–cyclin K (Homo sapiens, UniProt Q9NYV4); assay: Lanthascreen kinase binding assay, CDK12; details: for Lanthascreen raw signal, sheet CDK12: series r37, duplicates
# Sequence of CDK12–cyclin K (Q9NYV4 713-1052): as the sequence (Q9NYV4 713-1052 K965R) above, with R253K counted along it
# Sequence of CDK12–cyclin K (O75909 1-267 partner limits assumed): as the sequence (O75909 1-267 partner) above
# Description: (§1) Lanthascreen experiments were performed using commercially available reagents (Thermo Fisher) and according to the manufacturer’s instructions.
# HEK293T cells = assay: Drug sensitivity assay (CellTiter-Glo viability) with or without MLN4924 pretreatment; assay type: cell-based, human; details: Supplementary Table 2
# Summary of the method: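 First, cells (HEK293T–Cas9, 0.15 × 10^6 ml^−1) are exposed to DMSO or 100 nM MLN4924. Next, drugs follow at 2 h. Finally, CellTiter-Glo is read at day 3 and normalised to DMSO.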
# CDK2–cyclin A = target: T2, CDK2–cyclin A (Homo sapiens, UniProt P24941); assay: Lanthascreen kinase binding assay, CDK2; details: for Lanthascreen signal, sheet CDK2: raw replicates, experiment r36-r46
# T2 construct: purchased Thermo Fisher
# Description: as §1
# [1] = test system: cyclin K–eGFP degradation reporter; assay: Cyclin K reporter stability analysis (dual-color cyclin K–eGFP reporter); assay type: cell-based, human; details: source data sheet correlations; read-out: DC50
# Summary of the method: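 Values reflect cyclin K–eGFP levels after a 5 h exposure, expressed as the green-to-red fluorescence ratio and scaled to three vehicle-treated controls. Measurements came from HEK293T–Cas9 reporter cells by flow cytometry.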
# CDK9–cyclin T = target: T3, CDK9–cyclin T (Homo sapiens, UniProt P50750); assay: Lanthascreen kinase binding assay, CDK9; details: for Lanthascreen TR-FRET signal (raw ratio), sheet CDK9: third titration set (r25), duplicates
# T3 construct: purchased Thermo Fisher
# T3 sequence (P50750 whole entry): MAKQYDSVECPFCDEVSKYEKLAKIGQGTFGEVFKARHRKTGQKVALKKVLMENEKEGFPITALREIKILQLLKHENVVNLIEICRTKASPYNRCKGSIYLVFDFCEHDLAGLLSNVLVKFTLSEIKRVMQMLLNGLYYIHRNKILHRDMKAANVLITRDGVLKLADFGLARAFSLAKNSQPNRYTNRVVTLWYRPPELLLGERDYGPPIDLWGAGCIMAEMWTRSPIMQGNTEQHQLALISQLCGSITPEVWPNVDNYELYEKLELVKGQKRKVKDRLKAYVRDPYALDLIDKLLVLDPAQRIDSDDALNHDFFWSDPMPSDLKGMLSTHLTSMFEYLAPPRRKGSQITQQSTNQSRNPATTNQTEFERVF
# T3 sequence (O60563 whole entry partner): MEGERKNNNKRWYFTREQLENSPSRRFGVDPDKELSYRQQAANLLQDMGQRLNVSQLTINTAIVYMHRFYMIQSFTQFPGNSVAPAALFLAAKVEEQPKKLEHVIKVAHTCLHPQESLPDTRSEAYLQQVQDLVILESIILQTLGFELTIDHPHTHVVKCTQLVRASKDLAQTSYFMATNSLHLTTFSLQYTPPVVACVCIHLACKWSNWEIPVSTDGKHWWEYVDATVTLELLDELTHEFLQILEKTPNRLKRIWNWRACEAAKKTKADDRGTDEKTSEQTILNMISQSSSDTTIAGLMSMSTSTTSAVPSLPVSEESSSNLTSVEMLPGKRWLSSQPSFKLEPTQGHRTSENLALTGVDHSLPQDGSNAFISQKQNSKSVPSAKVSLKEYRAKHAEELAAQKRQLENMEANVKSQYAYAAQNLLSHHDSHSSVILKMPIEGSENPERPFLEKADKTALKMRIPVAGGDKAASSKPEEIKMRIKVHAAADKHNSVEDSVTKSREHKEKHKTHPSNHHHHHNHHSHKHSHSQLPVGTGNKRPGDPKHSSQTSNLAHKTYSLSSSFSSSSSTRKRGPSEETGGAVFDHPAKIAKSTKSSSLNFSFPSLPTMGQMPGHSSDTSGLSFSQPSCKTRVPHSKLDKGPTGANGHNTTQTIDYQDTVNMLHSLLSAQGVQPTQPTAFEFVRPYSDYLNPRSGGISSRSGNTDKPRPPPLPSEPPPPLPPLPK
# Description: as §1
smiles,measurement,setting,value
CC(C)n1cnc2c(NCc3ccc(-c4ccccn4)cc3)nc(N3CCOCC3)nc21 [DS19],TR-FRET signal at compound concentration 0.468 nM,CDK12–cyclin K and DDB1; raw replicate titration data,0.2796 and 0.2825 and 0.2274 and 0.2285
same,TR-FRET signal at compound concentration 0.468 nM,CDK12–cyclin K and DDB1; raw titration data,0.2796 and 0.2825 and 0.2274 and 0.2285
same,TR-FRET signal at compound concentration 2.16 nM,CDK12–cyclin K and DDB1; raw replicate titration data,0.4207 and 0.4231 and 0.3525 and 0.3569
same,TR-FRET signal at compound concentration 2.16 nM,CDK12–cyclin K and DDB1; raw titration data,0.4207 and 0.4231 and 0.3525 and 0.3569
same,TR-FRET signal at compound concentration 3.6 nM,CDK12–cyclin K and DDB1; raw replicate titration data,0.7048 and 0.756 and 0.6232 and 0.6327
same,TR-FRET signal at compound concentration 3.6 nM,CDK12–cyclin K and DDB1; raw titration data,0.7048 and 0.756 and 0.6232 and 0.6327
same,TR-FRET signal at compound concentration 7.92001 nM,CDK12–cyclin K and DDB1; raw replicate titration data,1.442 and 1.475 and 1.209 and 1.266
same,TR-FRET signal at compound concentration 7.92001 nM,CDK12–cyclin K and DDB1; raw titration data,1.442 and 1.475 and 1.209 and 1.266
same,TR-FRET signal at compound concentration 15.84 nM,CDK12–cyclin K and DDB1; raw replicate titration data,2.559 and 2.574 and 2.155 and 2.284
same,TR-FRET signal at compound concentration 15.84 nM,CDK12–cyclin K and DDB1; raw titration data,2.559 and 2.574 and 2.155 and 2.284
same,TR-FRET signal at compound concentration 30.96 nM,CDK12–cyclin K and DDB1; raw replicate titration data,3.476 and 3.44 and 3.283 and 3.355
same,TR-FRET signal at compound concentration 30.96 nM,CDK12–cyclin K and DDB1; raw titration data,3.476 and 3.44 and 3.283 and 3.355
same,TR-FRET signal at compound concentration 62.6401 nM,CDK12–cyclin K and DDB1; raw replicate titration data,3.895 and 3.93 and 3.8348 and 3.842
same,TR-FRET signal at compound concentration 62.6401 nM,CDK12–cyclin K and DDB1; raw titration data,3.895 and 3.93 and 3.8348 and 3.842
same,TR-FRET signal at compound concentration 125.28 nM,CDK12–cyclin K and DDB1; raw replicate titration data,4.03 and 4.166 and 4.089 and 4.0346
same,TR-FRET signal at compound concentration 125.28 nM,CDK12–cyclin K and DDB1; raw titration data,4.03 and 4.166 and 4.089 and 4.0346
same,TR-FRET signal at compound concentration 244.8 nM,CDK12–cyclin K and DDB1; raw replicate titration data,3.953 and 4.0607 and 4.092 and 4.114
same,TR-FRET signal at compound concentration 244.8 nM,CDK12–cyclin K and DDB1; raw titration data,3.953 and 4.0607 and 4.092 and 4.114
same,TR-FRET signal at compound concentration 993.601 nM,CDK12–cyclin K and DDB1; raw replicate titration data,4.102 and 4.235 and 4.304 and 4.258
same,TR-FRET signal at compound concentration 993.601 nM,CDK12–cyclin K and DDB1; raw titration data,4.102 and 4.235 and 4.304 and 4.258
same,TR-FRET signal at compound concentration 2001.6 nM,CDK12–cyclin K and DDB1; raw replicate titration data,4.005 and 4.144 and 4.249 and 4.271
same,TR-FRET signal at compound concentration 2001.6 nM,CDK12–cyclin K and DDB1; raw titration data,4.005 and 4.144 and 4.249 and 4.271
same,EC50,"CDK12–cyclin K and DDB1; in vitro complex formation, 50 nM CDK12–cyclin K, 100 nM DDB1, text and figures, read-out: TR-FRET EC50",14 ± 0.3 nM
same,EC50,"CDK12–cyclin K and DDB1; sheet MOESM7, read-out: log TR-FRET EC50 (converted)",14 nM
same,IC50,"CDK12–cyclin K; Supplementary Table 2, read-out: Lanthascreen IC50 [nM] CDK12",163 nM
same,"Lanthascreen raw signal, sheet CDK12",CDK12–cyclin K; compound 0.038147 nM,0.01386 and 0.01388
same,"Lanthascreen raw signal, sheet CDK12",CDK12–cyclin K; compound 0.152588 nM,0.01386 and 0.01359
same,"Lanthascreen raw signal, sheet CDK12",CDK12–cyclin K; compound 0.610352 nM,0.01429 and 0.01468
same,"Lanthascreen raw signal, sheet CDK12",CDK12–cyclin K; compound 9.76563 nM,0.01424 and 0.01408
same,"Lanthascreen raw signal, sheet CDK12",CDK12–cyclin K; compound 39.0625 nM,0.0128 and 0.01286
same,"Lanthascreen raw signal, sheet CDK12",CDK12–cyclin K; compound 156.25 nM,0.01155 and 0.01121
same,"Lanthascreen raw signal, sheet CDK12",CDK12–cyclin K; compound 625 nM,0.01099 and 0.009814
same,"Lanthascreen raw signal, sheet CDK12",CDK12–cyclin K; compound 2500 nM,0.009116 and 0.009896
same,"Lanthascreen raw signal, sheet CDK12",CDK12–cyclin K; compound 10000 nM,0.008961 and 0.008941
same,EC50,"HEK293T cells; Homo sapiens, HEK-293T, HEK293T viability, 72 h, compound alone, read-out: Cellular assays EC50",203 nM
same,Toxicity rescue,"HEK293T cells; MLN4924-mediated cytotoxicity rescue, 10 µM used where n.d.",300%
same,"Lanthascreen signal, sheet CDK2",CDK2–cyclin A; Compound 0.038147 nM,0.0135 and 0.01393
same,"Lanthascreen signal, sheet CDK2",CDK2–cyclin A; Compound 0.152588 nM,0.0137 and 0.01436
same,"Lanthascreen signal, sheet CDK2",CDK2–cyclin A; Compound 0.610352 nM,0.01422 and 0.01354
same,"Lanthascreen signal, sheet CDK2",CDK2–cyclin A; Compound 9.76563 nM,0.01407 and 0.01385
same,"Lanthascreen signal, sheet CDK2",CDK2–cyclin A; Compound 39.0625 nM,0.01288 and 0.01319
same,"Lanthascreen signal, sheet CDK2",CDK2–cyclin A; Compound 156.25 nM,0.01128 and 0.01245
same,"Lanthascreen signal, sheet CDK2",CDK2–cyclin A; Compound 625 nM,0.01025 and 0.01024
same,"Lanthascreen signal, sheet CDK2",CDK2–cyclin A; Compound 2500 nM,0.009848 and 0.009236
same,"Lanthascreen signal, sheet CDK2",CDK2–cyclin A; Compound 10000 nM,0.00863 and 0.008753
same,IC50,"CDK2–cyclin A; Supplementary Table 2, read-out: Lanthascreen IC50 [nM] CDK2",239 nM
same,DC50,[1],62 nM
same,IC50,"CDK9–cyclin T; Supplementary Table 2, read-out: Lanthascreen IC50 [nM] CDK9",143 nM
same,"Lanthascreen TR-FRET signal (raw ratio), sheet CDK9",CDK9–cyclin T; compound 0.038147 nM,0.02142 and 0.0184
same,"Lanthascreen TR-FRET signal (raw ratio), sheet CDK9",CDK9–cyclin T; compound 0.152588 nM,0.02078 and 0.0198
same,"Lanthascreen TR-FRET signal (raw ratio), sheet CDK9",CDK9–cyclin T; compound 0.610352 nM,0.02132 and 0.01977
same,"Lanthascreen TR-FRET signal (raw ratio), sheet CDK9",CDK9–cyclin T; compound 9.76563 nM,0.02157 and 0.01927
same,"Lanthascreen TR-FRET signal (raw ratio), sheet CDK9",CDK9–cyclin T; compound 39.0625 nM,0.01848 and 0.01637
same,"Lanthascreen TR-FRET signal (raw ratio), sheet CDK9",CDK9–cyclin T; compound 156.25 nM,0.01444 and 0.01311
same,"Lanthascreen TR-FRET signal (raw ratio), sheet CDK9",CDK9–cyclin T; compound 625 nM,0.01104 and 0.009432
same,"Lanthascreen TR-FRET signal (raw ratio), sheet CDK9",CDK9–cyclin T; compound 2500 nM,0.009751 and 0.009192
same,"Lanthascreen TR-FRET signal (raw ratio), sheet CDK9",CDK9–cyclin T; compound 10000 nM,0.008375 and 0.006377
